Reference: US8481586B2, “Pyrrolo[2,3-a] carbazoles and use thereof as PIM kinase inhibitors” (Centre National de la Recherche Scientifique, priority 2008, dated 2013)

Assays:
Format in all cases: biochemical
PIM-3 = PIM-3 (Homo sapiens (Human), UniProt Q86V86); assay: inhibition test on kinase PIM-3 (residual activity, IC50); conditions: for remaining activity at 10 µM: product at 10 μmol/L, Table 2, N.I. = not inhibitory, read-out: Percentage of residual activity PIM-3; for IC50: ten concentrations, dose-inhibition curve
Description: (§1) MKK1, ERK 1, ERK 2, JNK1, JNK2, JNK3, p38a MAPK, p38b MAPK, p38g MAPK, p38s MAPK, ERK8, RSK1, RSK2, PDK1, PKBa, PKBb, SGK1, S6K1, PKA, ROCK2, PRK2, PKCa, PKC zeta, PKD1, MSK1, MNK1, MNK2, MAPKAP-K2, MAPKAP-K3, PRAK, CAMKKa, CAMKKb, CAMK1, SmMLCK, PHK, CHK1, CHK2, GSK3b, CDK2/cyclin A, PLK1, PLK1 (Okadaic acid), Aurora B, Aurora C, AMPK, MARK3, BRSK2, MELK, CK1, CK2, NEK2a, NEK6, NEK7, IKKb, PIM-1, PIM-2, PIM-3, SRPK1, MST2, EF2K, HIPK2, HIPK3, PAK-4, PAK5, PAK6, Src, Lck, CSK.
(§2) The results in terms of residual activity of the kinases after being placed in contact with the compounds of Examples 2, 3 and 5, at a concentration of 10 μM (10 μmol/L), are shown in Table 1 below.
(§3) The higher the residual activity of the kinase tested, the lower the inhibitory activity of the test compounds on the tested kinase.
(§4) The compounds according to the invention were then tested on the kinases PIM-1, PIM-2 and PIM-3.
(§5) The results in terms of percentage of residual activity after placing the compounds according to the invention in contact with each of the kinases PIM-1, PIM-2 and PIM-3 are given in Table 2 below.
(§6) The higher the residual activity, the lower the inhibitory activity of the test compounds.
(§7) The mean inhibitory concentrations (IC50) of certain preferred compounds of the invention were determined in the following manner: the IC50 values were measured after performing the inhibition tests on the kinases PIM-1, PIM-2 and PIM-3 at ten different concentrations for each test compound, and the IC50 value was determined from the dose-inhibition curves obtained.

PIM-1 = PIM-1 (Homo sapiens (Human), UniProt P11309); assay: inhibition test on kinase PIM-1 (residual activity, IC50); conditions: for remaining activity at 10 µM: read-out: Percentage of residual activity PIM-1; for IC50: ten concentrations, dose-inhibition curve
PIM-1, sequence (P11309 whole entry, species assumed): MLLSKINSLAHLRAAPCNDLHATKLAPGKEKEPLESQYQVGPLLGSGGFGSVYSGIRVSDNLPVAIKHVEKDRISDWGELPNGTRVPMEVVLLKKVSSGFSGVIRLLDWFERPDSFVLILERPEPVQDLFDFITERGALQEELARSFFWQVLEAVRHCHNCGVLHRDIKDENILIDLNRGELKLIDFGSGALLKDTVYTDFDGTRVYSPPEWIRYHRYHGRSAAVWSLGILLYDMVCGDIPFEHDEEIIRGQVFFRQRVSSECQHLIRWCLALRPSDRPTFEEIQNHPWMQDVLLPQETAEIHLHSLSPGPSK
Description: as §1, §2, §3, §4, §5, §6, §7

PIM-2 = PIM-2 (Homo sapiens (Human), UniProt Q9P1W9); assay: inhibition test on kinase PIM-2 (residual activity, IC50); conditions: product at 10 μmol/L, Table 2, N.I. = not inhibitory; for remaining activity at 10 µM: read-out: Percentage of residual activity PIM-2
PIM-2, sequence (Q9P1W9 whole entry, species assumed): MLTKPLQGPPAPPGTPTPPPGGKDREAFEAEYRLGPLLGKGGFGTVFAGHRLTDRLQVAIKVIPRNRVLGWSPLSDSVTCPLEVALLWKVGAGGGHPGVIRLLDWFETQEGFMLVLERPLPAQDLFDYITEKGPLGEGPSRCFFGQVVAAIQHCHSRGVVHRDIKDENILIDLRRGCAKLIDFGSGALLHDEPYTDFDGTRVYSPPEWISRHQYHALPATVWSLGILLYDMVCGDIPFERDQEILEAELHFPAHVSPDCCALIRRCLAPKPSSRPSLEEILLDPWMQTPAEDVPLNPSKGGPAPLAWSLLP
Description: as §1, §2, §3, §4, §5, §6, §7

[1] = product at 10 μmol/L, Table 2, N.I. = not inhibitory

remaining activity at 10 µM (PIM-3) | remaining activity at 10 µM (PIM-1; [1]) | remaining activity at 10 µM (PIM-2) | IC50 (PIM-3) | IC50 (PIM-1) | Percentage of residual activity PIM-2 (PIM-2) | Percentage of residual activity PIM-1 (PIM-1; [1]) | Structure (SMILES)
64% | 61% | 62% |  |  |  |  | O=S(=O)(c1ccccc1)n1ccc2ccc3c4ccccc4[nH]c3c21 [Example 1, 1-benzenesulfonyl-1,10-dihydropyrrolo[2,3-a]carbazole]
7% | 20% | 30% | 170 nM |  |  |  | O=C(c1c[nH]c2c1ccc1c3ccccc3[nH]c12)C(F)(F)F [Example 6, 1-(1,10-dihydropyrrolo[2,3-a]carbazol-3-yl)-2,2,2-trifluoroethanone]
33% | 44% | 47% |  |  |  |  | CCOC(=O)C(=O)c1c[nH]c2c1ccc1c3ccccc3[nH]c12 [Example 8, ethyl 2-(1,10-dihydropyrrolo[2,3-a]carbazol-3-yl)-2-oxoacetate]
39% | 54% | 51% |  |  |  |  | CCN(CC)C(=O)C(=O)c1c[nH]c2c1ccc1c3ccccc3[nH]c12 [Example 10, 2-(1,10-dihydropyrrolo[2,3-a]carbazol-3-yl)-N,N-diethyl-2-oxoacetamide]
16% | 24% | 53% |  |  |  |  | CCN(CC)CC(O)c1c[nH]c2c1ccc1c3ccccc3[nH]c12 (stereo not drawn) [Example 12, 1-(1,10-dihydropyrrolo[2,3-a]carbazol-3-yl)-2-diethylaminoethanol]
8% | 12% | 46% | 440 nM |  |  |  | Brc1ccc2[nH]c3c(ccc4cc[nH]c43)c2c1 [Example 15, 7-bromo-1,10-dihydropyrrolo[2,3-a]carbazole]
15% | 74% | 93% |  |  |  |  | Brc1ccc2c(c1)[nH]c1c2ccc2cc[nH]c21 [Example 25, 8-bromo-1,10-dihydropyrrolo[2,3-a]carbazole]
11% | 8% | 37% |  |  |  |  | Brc1cccc2[nH]c3c(ccc4cc[nH]c43)c12 [Example 26, 6-bromo-1,10-dihydropyrrolo[2,3-a]carbazole]
43% | 90% |  |  |  | N.I. |  | Brc1cccc2c1[nH]c1c2ccc2cc[nH]c21 [Example 27, 9-bromo-1,10-dihydropyrrolo[2,3-a]carbazole]
43% |  |  |  |  | N.I. | N.I. | Fc1cccc2c1[nH]c1c2ccc2cc[nH]c21 [Example 29, 9-fluoro-1,10-dihydropyrrolo[2,3-a]carbazole]
4% | 9% | 26% |  |  |  |  | N#Cc1ccc2[nH]c3c(ccc4cc[nH]c43)c2c1 [Example 31, 1,10-dihydropyrrolo[2,3-a]carbazole-7-carbonitrile]
11% | 9% | 23% |  |  |  |  | O=[N+]([O-])c1ccc2[nH]c3c(ccc4cc[nH]c43)c2c1 [Example 32, 7-nitro-1,10-dihydropyrrolo[2,3-a]carbazole]
45% | 85% |  |  |  | N.I. |  | FC(F)(F)c1cccc2c1[nH]c1c2ccc2cc[nH]c21 [Example 34, 9-(trifluoromethyl)-1,10-dihydropyrrolo[2,3-a]carbazole]
48% | 39% | 70% |  |  |  |  | O=Cc1c[nH]c2c1ccc1c3cc(-c4ccc(-c5ccccc5)cc4)ccc3[nH]c12 [Example 37, 7-(4-biphenyl)-1,10-dihydropyrrolo[2,3-a]carbazole-3-carbaldehyde]
23% | 28% | 52% |  |  |  |  | O=Cc1c[nH]c2c1ccc1c3cc(-c4ccc(C(F)(F)F)cc4)ccc3[nH]c12 [Example 41, 7-(4-trifluoromethylphenyl)-1,10-dihydropyrrolo-[2,3-a]carbazole-3-carbaldehyde]

Further lines, the compound ahead of its results:

Structure (SMILES) | remaining activity at 10 µM (PIM-3) | remaining activity at 10 µM (PIM-1; [1]) | remaining activity at 10 µM (PIM-2) | IC50 (PIM-3) | IC50 (PIM-1) | Percentage of residual activity PIM-2 (PIM-2) | Percentage of residual activity PIM-1 (PIM-1; [1])
OCc1c[nH]c2c1ccc1c3ccccc3[nH]c12 [Example 4, (1,10-dihydropyrrolo[2,3-a]carbazol-3-yl)methanol] | 18% | 28% | 47% |  |  |  | 
OCCc1c[nH]c2c1ccc1c3ccccc3[nH]c12 [Example 9, 2-(1,10-dihydropyrrolo[2,3-a]carbazol-3-yl)ethanol] | 21% | 35% | 50% |  |  |  | 
CCN(CC)CCc1c[nH]c2c1ccc1c3ccccc3[nH]c12 [Example 11, 2-(1,10-dihydropyrrolo[2,3-a]carbazol-3-yl)-N,N-diethylethanamine] | 25% | 39% | 78% |  |  |  | 
CCN(CC)C(=O)/C(=N\O)c1c[nH]c2c1ccc1c3ccccc3[nH]c12 [Example 13, 2-(1,10-dihydropyrrolo[2,3-a]carbazol-3-yl)-N,N-diethyl-2-hydroxyiminoethanamide] | 21% | 41% | 27% |  |  |  | 
O=S(=O)(c1ccccc1)n1ccc2ccc3c4cc(Br)ccc4[nH]c3c21 [Example 14, 1-benzenesulfonyl-7-bromo-1,10-dihydropyrrolo-[2,3-a]carbazole] | 61% | 51% | 52% |  |  |  | 
O=Cc1c[nH]c2c1ccc1c3cc(Br)ccc3[nH]c12 [Example 16, 7-bromo-1,10-dihydropyrrolo[2,3-a]carbazole-3-carbaldehyde] | 6% | 6% | 57% | 40 nM | 570 nM |  | 
COc1cccc(-c2ccc3[nH]c4c(ccc5cc[nH]c54)c3c2)c1 [Example 18, 7-(3-methoxyphenyl)-1,10-dihydropyrrolo[2,3-a]-carbazole] | 39% | 46% | 51% |  |  |  | 
Fc1ccc2[nH]c3c(ccc4cc[nH]c43)c2c1 [Example 28, 7-fluoro-1,10-dihydropyrrolo[2,3-a]carbazole] | 20% | 35% | 84% |  |  |  | 
Clc1cc(Cl)c2c(c1)[nH]c1c2ccc2cc[nH]c21 [Example 30, 6,8-dichloro-1,10-dihydropyrrolo[2,3-a]carbazole] | 14% | 10% | 36% |  |  |  | 
CCc1cccc2c1[nH]c1c2ccc2cc[nH]c21 [Example 33, 9-ethyl-1,10-dihydropyrrolo[2,3-a]carbazole] | 23% | 28% | 96% |  |  |  | 
Cc1ccc2c(c1)[nH]c1c2ccc2cc[nH]c21 [Example 35, 8-methyl-1:10-dihydropyrrolo[2,3-a]carbazole] | 13% | 81% |  |  |  | N.I. | 
COc1cccc(-c2ccc3[nH]c4c(ccc5c(C=O)c[nH]c54)c3c2)c1 [Example 36, 7-(3-methoxyphenyl)-1,10-dihydropyrrolo[2,3-a]-carbazole-3-carbaldehyde] | 12% | 17% | 31% |  |  |  | 
O=Cc1c[nH]c2c1ccc1c3cc(-c4ccccc4)ccc3[nH]c12 [Example 38, 7-phenyl-1,10-dihydropyrrolo[2,3-a]carbazole-3-carbaldehyde] | 15% | 16% | 53% |  |  |  | 
O=Cc1c[nH]c2c1ccc1c3cc(-c4ccc(F)cc4)ccc3[nH]c12 [Example 39, 7-(4-fluorophenyl)-1,10-dihydropyrrolo[2,3-a]carbazole-3-carbaldehyde] | 15% | 15% | 55% |  |  |  | 
O=Cc1c[nH]c2c1ccc1c3cc(-c4ccc(F)cc4F)ccc3[nH]c12 [Example 40, 7-(2,4-difluorophenyl)-1,10-dihydropyrrolo[2,3-a]-carbazole-3-carbaldehyde] | 6% | 6% | 32% | 200 nM | 660 nM |  | 
